Assay results taken from patent US11198695B2, “Fused ring derivative having MGAT-2 inhibitory activity” (Shionogi & Co., Ltd., priority 2017, dated 2021).
pIC50: −log10 of the molar value.

The compounds below were run against recombinant human MGAT2 (Homo sapiens (Human), UniProt Q3SYC2) (assay: Measurement of human MGAT2 inhibitory activity). Conditions: read-out: IC50 (concentration exhibiting 50% enzyme inhibition), Table 52.
Type: biochemical
Outline: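 Membrane fraction of Sf9 cells expressing N-terminally Flag-tagged full-length human MGAT2, incubated 1 h at room temperature in 100 mmol/L phosphate pH 7.4 with 2 mmol/L DTT. The substrate solution held 30 μmol/L 2-oleoylglycerol and 10 μmol/L oleoyl-CoA. Diolein product was quantified by RapidFire ESI Q-TOF MS against diolein-d5 internal standard; % inhibition was set relative to with/without-enzyme controls.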

Chain of recombinant human MGAT2 (Q3SYC2 whole entry): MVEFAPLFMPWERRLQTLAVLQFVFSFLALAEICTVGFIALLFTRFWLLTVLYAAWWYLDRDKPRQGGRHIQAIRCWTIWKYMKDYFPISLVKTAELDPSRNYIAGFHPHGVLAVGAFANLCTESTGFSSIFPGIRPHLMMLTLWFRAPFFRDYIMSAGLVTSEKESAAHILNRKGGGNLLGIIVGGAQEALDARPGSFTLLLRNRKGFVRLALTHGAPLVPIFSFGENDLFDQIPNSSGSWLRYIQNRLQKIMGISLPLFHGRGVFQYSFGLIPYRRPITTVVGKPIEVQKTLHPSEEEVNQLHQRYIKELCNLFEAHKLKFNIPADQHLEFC

SMILES	pIC50
CS(=O)(=O)CC(=O)Nc1c2c(nn1-c1ccc(C#N)cc1)C[C@]1(CCc3cc(F)cc(F)c31)NC2=O [Compound I-164]	7.07
CS(=O)(=O)CC(=O)Nc1c2c(nn1CCC1CC1)C[C@@]1(CCc3cc(N4CC(F)(F)C4)ccc31)NC2=O [Compound I-165]	8.28
CS(=O)(=O)CC(=O)Nc1c2c(nn1CCC1CC1)C[C@@]1(CCc3cc(N4CC(C(F)(F)F)C4)ccc31)NC2=O [Compound I-166]	8.15
CS(=O)(=O)CC(=O)Nc1c2c(nn1-c1ccc(C#N)cn1)C[C@]1(CCc3cc(N4CC(C(F)(F)F)C4)ccc31)NC2=O [Compound I-168]	8.23
CS(=O)(=O)CC(=O)Nc1c2c(nn1-c1ccccn1)C[C@@]1(CCc3cc(OCC(F)(F)F)cc(F)c31)NC2=O [Compound I-169]	8.01
CS(=O)(=O)CC(=O)Nc1c2c(nn1CCC1CC1)C[C@](c1ccc(OCC(F)(F)F)cc1F)(C(F)(F)F)NC2=O [Compound I-171]	7.92
Cn1cc(C(=O)Nc2c3c(nn2CCC2CC2)C[C@]2(CCc4cc(OCC(F)(F)F)ccc42)NC3=O)nn1 [Compound I-172]	6.32
CS(=O)(=O)CC(=O)Nc1c2c(nn1Cc1ccc(C(F)(F)F)o1)C[C@]1(CCc3cc(OCCCC(F)(F)F)ccc31)NC2=O [Compound I-173]	7.11
COc1ccc(C(=O)Nc2c3c(nn2CCC2CC2)C[C@]2(CCc4cc(OCCCC(F)(F)F)ccc42)NC3=O)cc1 [Compound I-174]	7.20
CS(=O)(=O)CC(=O)Nc1c2c(nn1-c1ccccn1)C[C@]1(CCc3cc(F)cc(F)c31)NC2=O [Compound I-175]	7.07
Cc1cc(C(=O)Nc2c3c(nn2CCC2CC2)C[C@]2(CCc4cc(OCC(F)(F)F)ccc42)NC3=O)no1 [Compound I-176]	6.74
O=C1N[C@@]2(CCc3cc(OCC(F)(F)F)ccc32)Cc2nn(CCC3CC3)c(NC(=O)c3onc4ccccc34)c21 [Compound I-177]	6.21
CS(=O)(=O)CC(=O)Nc1c2c(nn1CCC1CC1)C[C@]1(CCc3cc(F)cc(F)c31)NC2=O [Compound I-178]	7.41
Cc1cccc(-n2nc3c(c2NC(=O)CS(C)(=O)=O)C(=O)N[C@@]2(CCc4cc(OCCCC(F)(F)F)ccc42)C3)c1 [Compound I-179]	8.21
Cc1ccccc1-n1nc2c(c1NC(=O)CS(C)(=O)=O)C(=O)N[C@@]1(CCc3cc(OCCCC(F)(F)F)ccc31)C2 [Compound I-180]	6.82
O=C1N[C@@]2(CCc3cc(OCC(F)(F)F)ccc32)Cc2nn(CCC3CC3)c(C(=O)NS(=O)(=O)C3CC3)c21 [Compound I-181]	7.82
CS(=O)(=O)CC(=O)Nc1c2c(nn1-c1ccc(F)cc1)C[C@]1(CCOc3cc(OCC(F)(F)F)ccc31)NC2=O [Compound I-182]	8.60
O=C1N[C@@]2(CCc3cc(OCC(F)(F)F)ccc32)Cc2nn(CCC3CC3)c(NC(=O)C3CS(=O)(=O)C3)c21 [Compound I-183]	7.74
O=C1N[C@@]2(CCc3cc(OCC(F)(F)F)ccc32)Cc2nn(CCC3CC3)c(NC(=O)C3CC(F)(F)C3)c21 [Compound I-184]	7.17
CS(=O)(=O)CC(=O)Nc1c2c(nn1-c1ccccn1)C[C@]1(CCc3cc(OCC(F)(F)F)cc(F)c31)NC2=O [Compound I-185]	8.20
O=C1N[C@@]2(CCc3cc(OCC(F)(F)F)ccc32)Cc2nn(CCC3CC3)c(-c3noc(=O)[nH]3)c21 [Compound I-186]	8.12

SMILES	pIC50
O=C1N[C@@]2(CCc3cc(OCC(F)(F)F)ccc32)Cc2nn(CCC3CC3)c(C(=O)O)c21 [Compound I-187]	6.72
CS(=O)(=O)CC(=O)Nc1c2c(nn1-c1ccncn1)C[C@]1(CCc3cc(OCC(F)(F)F)ccc31)NC2=O [Compound I-188]	7.28
CS(=O)(=O)CC(=O)Nc1c2c(nn1-c1ccc(C(F)(F)F)cn1)C[C@]1(CCc3cc(OCC(F)(F)F)ccc31)NC2=O [Compound I-189]	8.92
CS(=O)(=O)CC(=O)Nc1c2c(nn1CCc1ccccc1)C[C@]1(CCc3cc(OCC(F)(F)F)ccc31)NC2=O [Compound I-191]	7.55
CS(=O)(=O)CC(=O)Nc1c2c(nn1Cc1nc(C(F)(F)F)cs1)C[C@]1(CCc3cc(OCC(F)(F)F)ccc31)NC2=O [Compound I-192]	8.19
CS(=O)(=O)CC(=O)Nc1c2c(nn1CCCC(F)(F)F)C[C@]1(CCc3cc(OCC(F)(F)F)ccc31)NC2=O [Compound I-193]	8.21
CCS(=O)(=O)NCc1c2c(nn1CCC1CC1)C[C@]1(CCc3cc(OCC(F)(F)F)ccc31)NC2=O [Compound I-194]	6.34
O=C1N[C@@]2(CCc3cc(OCC(F)(F)F)ccc32)Cc2nn(CCC3CC3)c(CNS(=O)(=O)C3CC3)c21 [Compound I-195]	6.35
O=C1N[C@@]2(CCc3cc(OCC(F)(F)F)ccc32)Cc2nn(CCC3CC3)c(C(=O)Nc3ccccc3)c21 [Compound I-196]	6.00
CC(C)(O)c1ccc(-n2nc3c(c2NC(=O)CS(C)(=O)=O)C(=O)N[C@@]2(CCc4cc(OCCCC(F)(F)F)ccc42)C3)cc1 [Compound I-197]	7.62
CS(=O)(=O)CC(=O)Nc1c2c(nn1CCC1CC1)C[C@]1(CCc3cc(NC(=O)CC(F)(F)F)ccc31)NC2=O [Compound I-198]	7.17
O=C(Nc1c2c(nn1CCC1CC1)C[C@]1(CCc3cc(OCC(F)(F)F)ccc31)NC2=O)c1ccncn1 [Compound I-199]	6.40
CS(=O)(=O)CC(=O)Nc1c2c(nn1CCC1CC1)C[C@]1(CCc3cc(N4CC(F)(F)C4)cc(F)c31)NC2=O [Compound I-202]	8.21
CS(=O)(=O)CC(=O)Nc1c2c(nn1-c1ccc(F)cn1)C[C@]1(CCc3cc(OCC(F)(F)F)ccc31)NC2=O [Compound I-203]	8.59
CS(=O)(=O)CC(=O)Nc1c2c(nn1CCC1CC1)C[C@]1(CCc3cc(N4CC(F)(F)C4)ccc31)NC2=O [Compound I-204]	7.95
CS(=O)(=O)CC(=O)Nc1c2c(nn1CC1CCOCC1)C[C@]1(CCc3cc(OCCCC(F)(F)F)ccc31)NC2=O [Compound I-205]	6.57
CS(=O)(=O)CC(=O)Nc1c2c(nn1CCCC(F)(F)F)C[C@]1(CCc3cc(OCCCC(F)(F)F)ccc31)NC2=O [Compound I-206]	8.62
CS(=O)(=O)CC(=O)Nc1c2c(nn1CCCC#N)C[C@]1(CCc3cc(OCCCC(F)(F)F)ccc31)NC2=O [Compound I-207]	7.76
CS(=O)(=O)CC(=O)Nc1nn(CCCC(F)(F)F)c2c1C(=O)N[C@@]1(CCc3cc(OCCCC(F)(F)F)ccc31)C2 [Compound I-208]	6.60
CS(=O)(=O)CC(=O)Nc1c2c(nn1Cc1nc(C(F)(F)F)cs1)C[C@]1(CCc3cc(OCCCC(F)(F)F)ccc31)NC2=O [Compound I-209]	8.49
CS(=O)(=O)CC(=O)Nc1nn(Cc2nc(C(F)(F)F)cs2)c2c1C(=O)N[C@@]1(CCc3cc(OCCCC(F)(F)F)ccc31)C2 [Compound I-210]	6.26

SMILES	pIC50
CS(=O)(=O)CC(=O)Nc1c2c(nn1-c1ccc(F)cn1)C[C@@]1(CCc3cc(OCC(F)(F)F)ccc31)NC2=O [Compound I-211]	8.68
CS(=O)(=O)CC(=O)NCc1c2c(nn1CCC1CC1)C[C@]1(CCc3cc(OCC(F)(F)F)ccc31)NC2=O [Compound I-213]	7.37
CCCC(C)n1nc2c(c1NC(=O)CS(C)(=O)=O)C(=O)N[C@@]1(CCc3cc(OCC(F)(F)F)ccc31)C2 (some centres unmarked) [Compound I-214]	6.34
O=C(Nc1c2c(nn1CCC1CC1)C[C@]1(CCc3cc(OCC(F)(F)F)ccc31)NC2=O)c1ncccn1 [Compound I-215]	6.38
O=C(Nc1c2c(nn1CCC1CC1)C[C@]1(CCc3cc(OCC(F)(F)F)ccc31)NC2=O)c1cncnc1 [Compound I-216]	7.46
O=C(Nc1c2c(nn1CCC1CC1)C[C@]1(CCc3cc(OCC(F)(F)F)ccc31)NC2=O)c1cnccn1 [Compound I-217]	7.05
O=C(Nc1c2c(nn1CCC1CC1)C[C@]1(CCc3cc(OCC(F)(F)F)ccc31)NC2=O)c1ccoc1 [Compound I-218]	7.32
O=C(Nc1c2c(nn1CCC1CC1)C[C@]1(CCc3cc(OCC(F)(F)F)ccc31)NC2=O)c1csnn1 [Compound I-219]	6.96
O=C(Nc1c2c(nn1CCC1CC1)C[C@]1(CCc3cc(OCC(F)(F)F)ccc31)NC2=O)c1ccco1 [Compound I-220]	7.46
Cc1nnsc1C(=O)Nc1c2c(nn1CCC1CC1)C[C@]1(CCc3cc(OCC(F)(F)F)ccc31)NC2=O [Compound I-221]	7.22
O=C(Nc1c2c(nn1CCC1CC1)C[C@]1(CCc3cc(OCC(F)(F)F)ccc31)NC2=O)c1cscn1 [Compound I-222]	7.06
Cn1nccc1C(=O)Nc1c2c(nn1CCC1CC1)C[C@]1(CCc3cc(OCC(F)(F)F)ccc31)NC2=O [Compound I-223]	6.85
Cc1oncc1C(=O)Nc1c2c(nn1CCC1CC1)C[C@]1(CCc3cc(OCC(F)(F)F)ccc31)NC2=O [Compound I-224]	6.51
O=C(Nc1c2c(nn1CCC1CC1)C[C@]1(CCc3cc(OCC(F)(F)F)ccc31)NC2=O)c1ncco1 [Compound I-225]	7.40
Cc1cnoc1C(=O)Nc1c2c(nn1CCC1CC1)C[C@]1(CCc3cc(OCC(F)(F)F)ccc31)NC2=O [Compound I-226]	7.05
Cc1cc(C(=O)Nc2c3c(nn2CCC2CC2)C[C@]2(CCc4cc(OCC(F)(F)F)ccc42)NC3=O)ns1 [Compound I-227]	6.43
O=C(Nc1c2c(nn1CCC1CC1)C[C@]1(CCc3cc(OCC(F)(F)F)ccc31)NC2=O)c1cncs1 [Compound I-228]	7.55
Cc1cc(C(=O)Nc2c3c(nn2CCC2CC2)C[C@]2(CCc4cc(OCC(F)(F)F)ccc42)NC3=O)n(C)n1 [Compound I-229]	6.21
Cc1ncc(C(=O)Nc2c3c(nn2CCC2CC2)C[C@]2(CCc4cc(OCC(F)(F)F)ccc42)NC3=O)s1 [Compound I-230]	6.68
O=C(Nc1c2c(nn1CCC1CC1)C[C@]1(CCc3cc(OCC(F)(F)F)ccc31)NC2=O)c1cocn1 [Compound I-231]	7.32
